Assay results: patent publication US11578056B2, “Solid forms comprising (S)-2-(2,6-dioxopiperidin-3-yl)-4-((2-fluoro-4-((3-morpholinoazetidin-1-yl)methyl)benzyl)amino)isoindoline-1,3-dione and salts thereof, and compositions comprising and methods of using the same” (Celgene Corporation, priority 2019, dated 2023)

Experiments:
Assay type in all cases: cell-based
SU-DHL-4 cell line = test: Cell proliferation and viability assay using SU-DHL-4 cell line (CellTiter-Glo, 1536-well); settings: Homo sapiens; SU-DHL-4, 120 hours, Cell Titer-Glo luminescence
Description: Cell Proliferation and Viability Assay Using SU-DHL-4 Cell Line: The following exemplary assay uses a DLBCL cell line, for example, the SU-DHL-4 cell line (Deutsche Sammlung von Mikroorganismen and Zellkulturen GmbH [DSMZ]: catalogue number ACC-495) at 120 hours post-treatment. The seeding density for SU-DHL-4 can be optimized to ensure assay linearity in 1536-well plates.
Increasing concentrations (0.5 nM to 10 μM) of Compound 1 were each spotted in a 20-point dilution fashion (unevenly spaced data points) via an acoustic dispenser (EDC ATS-100) into an empty 1536-well plate. The DMSO concentration was kept constant for a final assay concentration of 0.1% DMSO. […] At the time when exposure of cells to compound began (to), initial viable cell number was assessed via Cell Titer-Gb® Luminescent Cell Viability Assay at a 1 vol: 2 vol ratio according to manufacturer's instructions (Promega Corporation, Madison, Wis.) by quantifying the level of luminescence generated by adenosine-5′-triphosphate (ATP) present in viable cells. After 120 hours, cell viability of the treated cells was assessed via Cell Titer-Gb® and read for luminescence. All growth inhibition curves were processed and evaluated using Activity Base (IDBS, Alameda, Calif.). […]

HT cell line = test: Hematological cell line viability/apoptosis flow cytometry assay; settings: HT (DLBCL GCB); 120 h
Description: (§1) Cell Proliferation and Viability Assay Using Hematological Cell Lines: The following exemplary anti-proliferative assay uses exemplary hematological cell lines in the following. The in vitro growth inhibitory activity of Compound 1 described herein was evaluated using a 384-well flow cytometry assay.
(§2) The cell lines were plated in 384-well flat bottom plates and assessed with increasing concentrations of compound ranging from 0.00015 to 10 μM or dimethyl sulfoxide (DMSO) control. The final concentration of DMSO was 0.1% (v/v). Following the addition of Compound 1 or DMSO and incubation for 120 hours, cell number and cell death were analyzed by flow cytometry (Attune®, Thermo Fisher) using Annexin V and the live-cell impermeant DNA dye, DRAQ7. Phosphatidylserine translocates from the inner layer to the outer layer of the cell membrane early in apoptosis and Annexin V binds to the exposed phosphatidylserine found on the surface of an apoptotic cell. The vital dye DRAQ7 is excluded by intact live cells and only stains cells that have died as a result of apoptosis or necrosis.
(§3) Flow cytometry data analysis was then performed using the Flow Jo_v10 software to determine the number of viable cells (Annexin V and DRAQ7 double negative staining cells) and percentage of apoptotic cells (Annexin V positive cells) for each condition. The live cell count for every concentration was normalized to the DMSO control (considered as 100%) to calculate the percentage of viable cells remaining after treatment and graphed using GraphPad Prism 7.03. The IC50 (50% inhibitory concentration) and Emax (maximum efficacy achieved) values were then calculated by performing nonlinear regression curve fitting using log(inhibitor) vs. normalized response—variable slope analysis on GraphPad Prism 7.03. Area under the curve (AUC) was calculated by performing area under curve analysis on GraphPad Prism 7.03. Similarly, for apoptosis analysis, the percentage of apoptosis combining both “early” (Annexin V positive and DRAQ7 negative) and “late” apoptosis (Annexin V and DRAQ7 positive) cell gates relative to DMSO was graphed using GraphPad Prism 7.03. The AUC, EC50 (concentration of compound that produces half-maximal apoptosis response) and Ymax (maximal percentage of apoptosis achieved) values from apoptosis curves were calculated by performing area under curve analysis and nonlinear regression curve fitting using log(agonist) vs. normalized response—Variable slope analysis on GraphPad Prism 7.03.
(§4) Dose-response proliferation curves for the panel of hematological cell lines and non-linear curve-fit regression were used to determine IC50, AUC, and Emax for % viable cells (Emax for viability varies between 100 at low doses and 0 at high doses, which corresponds to inhibition of all viable cells), and dose-response apoptosis curves were used to determine the EC50, AUC, and Ymax for % apoptosis (Ymax for apoptosis varies from 0 at low doses and 100 at higher doses which corresponds to death of all cells). Tumor cells were exposed to serial dilutions (0.00015 to 10 μM) of Compound 1 or dimethyl sulfoxide (DMSO) control for 5 days. Viability and apoptosis for all cell lines was determined by Annexin V/7-aminoactinomycin D (7-AAD) flow cytometry.

JJN-3 cell line = test: as above; settings: JJN-3 (MM, PCL), 120 h
Description: as §1, §2, §3, §4

SU-DHL-5 cell line = test: as above; settings: SU-DHL-5 (DLBCL); 120 h
Description: as §1, §2, §3, §4

U-2932 cell line = test: as above; settings: U-2932 (DLBCL ABC); 120 h
Description: as §1, §2, §3, §4

WA-OSEL cell line = test: as above; settings: WA-OSEL (CLL), 120 h
Description: as §1, §2, §3, §4

WILL-1 cell line = test: as above; settings: WILL-1 (DLBCL); 120 h
Description: as §1, §2, §3, §4

hematological cell lines = test: Hematological cell line viability/apoptosis flow cytometry assay, whole panel; settings: panel of hematological cell lines, 0.00015 to 10 μM, 5 days
Description: as §1
The cell lines were plated in 384-well flat bottom plates and assessed with increasing concentrations of compound ranging from 0.00015 to 10 μM or dimethyl sulfoxide (DMSO) control. The final concentration of DMSO was 0.1% (v/v). Following the addition of Compound 1 or DMSO and incubation for 120 hours, cell number and cell death were analyzed by flow cytometry (Attune®, Thermo Fisher) using Annexin V and the live-cell impermeant DNA dye, DRAQ7. […]
Flow cytometry data analysis was then performed using the Flow Jo_v10 software to determine the number of viable cells (Annexin V and DRAQ7 double negative staining cells) and percentage of apoptotic cells (Annexin V positive cells) for each condition. […] The IC50 (50% inhibitory concentration) and Emax (maximum efficacy achieved) values were then calculated by performing nonlinear regression curve fitting using log(inhibitor) vs. normalized response—variable slope analysis on GraphPad Prism 7.03. Area under the curve (AUC) was calculated by performing area under curve analysis on GraphPad Prism 7.03. […]

O=C1CC[C@H](N2C(=O)c3cccc(NCc4ccc(CN5CC(N6CCOCC6)C5)cc4F)c3C2=O)C(=O)N1 [Compound 1, (S)-2-(2,6-dioxopiperidin-3-yl)-4-((2-fluoro-4-((3-morpholinoazetidin-1-yl)methyl)benzyl)amino)isoindoline-1,3-dione]
IC50 (SU-DHL-4 cell line): < 200 nM
% Viable Cells AUC (HT cell line): 396.7
% Viable Cells Emax (HT cell line): 30.39%
Apoptosis AUC (HT cell line): 225.3
Apoptosis Ymax (HT cell line): 25.16%
IC50 (JJN-3 cell line; Homo sapiens, read-out: % Viable Cells IC50): 0.4 nM
% Viable Cells AUC (JJN-3 cell line): 278.2
% Viable Cells Emax (JJN-3 cell line): 21.6%
Apoptosis AUC (JJN-3 cell line): 57.97
Apoptosis Ymax (JJN-3 cell line): 26%
% Viable Cells AUC (SU-DHL-5 cell line): 1.873
% Viable Cells Emax (SU-DHL-5 cell line): 0.1398%
Apoptosis AUC (SU-DHL-5 cell line): 934.1
Apoptosis Ymax (SU-DHL-5 cell line): 95.23%
% Viable Cells AUC (U-2932 cell line): 163.7
% Viable Cells Emax (U-2932 cell line): 12.8%
Apoptosis AUC (U-2932 cell line): 212.8
Apoptosis Ymax (U-2932 cell line): 25.81%
% Viable Cells AUC (WA-OSEL cell line): 616.1
% Viable Cells Emax (WA-OSEL cell line): 54.42%
Apoptosis AUC (WA-OSEL cell line): 69.39
Apoptosis Ymax (WA-OSEL cell line): 7.38%
EC50 (WA-OSEL cell line): 112 nM
IC50 (WA-OSEL cell line; read-out: % Viable Cells IC50): > 10000 nM
% Viable Cells AUC (WILL-1 cell line): 233.7
% Viable Cells Emax (WILL-1 cell line): 4.216%
Apoptosis AUC (WILL-1 cell line): 549.4
Apoptosis Ymax (WILL-1 cell line): 79.51%
antiproliferative activity and/or apoptotic effects (hematological cell lines): antiproliferative activity and/or apoptotic effects in almost all hematological cell lines tested
